# Test results: ChEMBL document CHEMBL5465560, “Selectivity Literature for EUbOPEN Chemogenomic Library” (2024)
# Residue numbers refer to the chain shown, from its start.
# Tests used:
# [1] = test system: Receptor-type tyrosine-protein kinase FLT3 (Homo sapiens), P36888 [UNDEFINED MUTATION]; experiment: Selectivity interaction (KinomeScan (DiscoverX)) EUB0000311b FLT3; conditions: at 1 µM
# [2] = test system: T1, Receptor-type tyrosine-protein kinase FLT3 (Homo sapiens), P36888 [K663Q]; experiment: (§1) Selectivity interaction (KinomeScan (DiscoverX)) EUB0000655a FLT3; conditions: at 10 µM
# T1 sequence (whole entry): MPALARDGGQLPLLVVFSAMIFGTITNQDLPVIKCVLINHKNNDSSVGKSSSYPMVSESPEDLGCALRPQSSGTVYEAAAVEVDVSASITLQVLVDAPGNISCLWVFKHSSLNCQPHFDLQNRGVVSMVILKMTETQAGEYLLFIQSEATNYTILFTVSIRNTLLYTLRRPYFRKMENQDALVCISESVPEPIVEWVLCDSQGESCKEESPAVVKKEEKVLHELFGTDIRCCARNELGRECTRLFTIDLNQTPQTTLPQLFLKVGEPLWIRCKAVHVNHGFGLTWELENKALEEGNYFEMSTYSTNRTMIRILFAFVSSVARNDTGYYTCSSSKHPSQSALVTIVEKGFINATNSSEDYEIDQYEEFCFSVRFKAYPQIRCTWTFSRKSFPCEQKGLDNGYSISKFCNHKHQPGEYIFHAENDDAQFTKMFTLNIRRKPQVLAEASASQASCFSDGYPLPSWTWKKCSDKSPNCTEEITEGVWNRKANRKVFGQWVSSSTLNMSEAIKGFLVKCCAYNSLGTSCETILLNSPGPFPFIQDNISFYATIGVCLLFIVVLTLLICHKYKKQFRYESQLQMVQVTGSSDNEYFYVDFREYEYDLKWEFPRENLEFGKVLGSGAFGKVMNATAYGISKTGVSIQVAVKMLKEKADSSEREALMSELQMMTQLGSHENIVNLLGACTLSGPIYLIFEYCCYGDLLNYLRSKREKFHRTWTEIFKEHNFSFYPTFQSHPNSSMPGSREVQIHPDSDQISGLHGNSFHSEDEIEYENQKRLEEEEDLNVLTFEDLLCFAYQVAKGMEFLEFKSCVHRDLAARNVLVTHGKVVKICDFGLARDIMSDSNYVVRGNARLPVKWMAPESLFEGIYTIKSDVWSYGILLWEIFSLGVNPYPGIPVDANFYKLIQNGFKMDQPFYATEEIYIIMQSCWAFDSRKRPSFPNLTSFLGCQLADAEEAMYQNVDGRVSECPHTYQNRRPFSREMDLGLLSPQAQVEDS
# [3] = test system: T2, Receptor-type tyrosine-protein kinase FLT3 (Homo sapiens), P36888 [D835H]; experiment: as §1; conditions: at 10 µM
# T2 sequence (whole entry): T1 sequence (whole entry) with Q663K, D835H
# [4] = molecular target: Phosphatidylinositol 4,5-bisphosphate 3-kinase catalytic subunit beta isoform (Homo sapiens) (UniProt P42338); experiment: Selectivity interaction (KinomeScan (DiscoverX)) EUB0000655a PIK3CB; conditions: at 10 µM
# [5] = molecular target: 3',5'-cyclic-AMP phosphodiesterase 4B (Homo sapiens) (UniProt Q07343); experiment: Selectivity interaction (Panel of kinases, GPCRs, ion channels and transporters (enzymatic assay)) EUB0000223bCl PDE4B
# Sequence of 3',5'-cyclic-AMP phosphodiesterase 4B (Homo sapiens) (Q07343 whole entry): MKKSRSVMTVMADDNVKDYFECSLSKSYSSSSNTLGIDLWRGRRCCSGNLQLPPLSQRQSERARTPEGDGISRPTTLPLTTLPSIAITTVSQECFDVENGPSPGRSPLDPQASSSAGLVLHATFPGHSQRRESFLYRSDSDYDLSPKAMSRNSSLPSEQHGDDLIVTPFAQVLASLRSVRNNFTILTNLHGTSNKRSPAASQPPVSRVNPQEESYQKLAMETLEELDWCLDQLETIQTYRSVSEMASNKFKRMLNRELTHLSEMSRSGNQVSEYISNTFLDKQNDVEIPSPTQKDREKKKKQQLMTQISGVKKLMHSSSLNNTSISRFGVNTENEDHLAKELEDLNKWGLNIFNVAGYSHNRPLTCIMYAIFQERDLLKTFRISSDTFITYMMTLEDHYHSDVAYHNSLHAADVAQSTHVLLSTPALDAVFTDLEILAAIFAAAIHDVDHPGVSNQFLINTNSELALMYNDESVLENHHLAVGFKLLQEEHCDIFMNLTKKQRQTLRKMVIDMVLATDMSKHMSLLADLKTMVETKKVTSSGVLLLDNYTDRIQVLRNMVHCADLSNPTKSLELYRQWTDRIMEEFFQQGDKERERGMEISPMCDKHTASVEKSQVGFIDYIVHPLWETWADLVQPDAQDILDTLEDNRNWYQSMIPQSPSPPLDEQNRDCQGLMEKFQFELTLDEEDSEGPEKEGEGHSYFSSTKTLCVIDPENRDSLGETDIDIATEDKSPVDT
# Sequence of Phosphatidylinositol 4,5-bisphosphate 3-kinase catalytic subunit beta isoform (Homo sapiens) (P42338 whole entry, looked up, canonical isoform): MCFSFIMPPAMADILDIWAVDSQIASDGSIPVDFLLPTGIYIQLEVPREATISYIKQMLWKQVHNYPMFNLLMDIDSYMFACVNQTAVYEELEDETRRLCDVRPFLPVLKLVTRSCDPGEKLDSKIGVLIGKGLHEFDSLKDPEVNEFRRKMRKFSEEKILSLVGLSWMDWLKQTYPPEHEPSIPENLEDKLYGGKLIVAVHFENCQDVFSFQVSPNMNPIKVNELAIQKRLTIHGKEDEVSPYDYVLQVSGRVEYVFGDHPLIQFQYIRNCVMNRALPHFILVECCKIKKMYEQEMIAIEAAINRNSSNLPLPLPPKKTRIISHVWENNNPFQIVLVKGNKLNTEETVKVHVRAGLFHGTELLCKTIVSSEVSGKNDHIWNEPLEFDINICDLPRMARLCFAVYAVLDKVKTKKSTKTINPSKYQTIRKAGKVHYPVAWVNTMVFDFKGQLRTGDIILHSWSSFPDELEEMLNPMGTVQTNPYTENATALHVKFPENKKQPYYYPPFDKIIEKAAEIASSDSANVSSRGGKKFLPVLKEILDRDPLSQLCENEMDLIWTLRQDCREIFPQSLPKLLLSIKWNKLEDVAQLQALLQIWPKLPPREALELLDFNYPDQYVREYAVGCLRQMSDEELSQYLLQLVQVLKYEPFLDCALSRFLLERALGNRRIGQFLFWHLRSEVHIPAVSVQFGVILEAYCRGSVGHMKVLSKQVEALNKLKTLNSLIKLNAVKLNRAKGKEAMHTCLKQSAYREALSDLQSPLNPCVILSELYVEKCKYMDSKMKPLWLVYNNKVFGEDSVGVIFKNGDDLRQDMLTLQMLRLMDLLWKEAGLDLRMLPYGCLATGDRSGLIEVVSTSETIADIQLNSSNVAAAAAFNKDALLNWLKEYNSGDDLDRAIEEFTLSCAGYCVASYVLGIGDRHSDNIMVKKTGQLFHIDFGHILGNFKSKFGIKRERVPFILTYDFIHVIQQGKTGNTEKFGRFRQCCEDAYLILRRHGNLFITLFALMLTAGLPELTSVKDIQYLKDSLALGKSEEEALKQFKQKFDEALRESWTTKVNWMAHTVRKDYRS
smiles,measurement,setting,value
CCc1ccccc1C(=O)Nc1n[nH]c2c(C)c(F)c(C3C(C#N)=C(C)N(C)C(C)=C3C#N)cc12 [BAY-3827],% of control,[1],12%
CN(C)CCOc1ccc(-c2nc(-c3ccncc3)c(-c3ccc4c(c3)CC/C4=N\O)[nH]2)cc1,% of control,[2],90%
same,% of control,[3],85%
same,% of control,[4],100%
COc1cc(C(=O)N2CC[C@@H](O)[C@@H](N)C2)cc2nc(-c3cc4ccccc4n3CC3CC3)n(C)c12,pXC50,[5],4.4 M
